Measured values reported in paper PMC3042376, “The elicitation of a systemic resistance by Pseudomonas putida BTP1 in tomato involves the stimulation of two lipoxygenase isoforms” (BMC Plant Biology, 2011).

Target: T1, TomLOXF (Solanum lycopersicum, UniProt C0KKU8)
T1 construct: gene loxF; predicted chloroplast transit peptide (54 residues, ChloroP) excluded; N-terminal His tag of pET28-a kept; E. coli BL21; about 100 kDa; full precursor 903 residues; partially purified on nickel
T1 sequence (C0KKU8 55-902): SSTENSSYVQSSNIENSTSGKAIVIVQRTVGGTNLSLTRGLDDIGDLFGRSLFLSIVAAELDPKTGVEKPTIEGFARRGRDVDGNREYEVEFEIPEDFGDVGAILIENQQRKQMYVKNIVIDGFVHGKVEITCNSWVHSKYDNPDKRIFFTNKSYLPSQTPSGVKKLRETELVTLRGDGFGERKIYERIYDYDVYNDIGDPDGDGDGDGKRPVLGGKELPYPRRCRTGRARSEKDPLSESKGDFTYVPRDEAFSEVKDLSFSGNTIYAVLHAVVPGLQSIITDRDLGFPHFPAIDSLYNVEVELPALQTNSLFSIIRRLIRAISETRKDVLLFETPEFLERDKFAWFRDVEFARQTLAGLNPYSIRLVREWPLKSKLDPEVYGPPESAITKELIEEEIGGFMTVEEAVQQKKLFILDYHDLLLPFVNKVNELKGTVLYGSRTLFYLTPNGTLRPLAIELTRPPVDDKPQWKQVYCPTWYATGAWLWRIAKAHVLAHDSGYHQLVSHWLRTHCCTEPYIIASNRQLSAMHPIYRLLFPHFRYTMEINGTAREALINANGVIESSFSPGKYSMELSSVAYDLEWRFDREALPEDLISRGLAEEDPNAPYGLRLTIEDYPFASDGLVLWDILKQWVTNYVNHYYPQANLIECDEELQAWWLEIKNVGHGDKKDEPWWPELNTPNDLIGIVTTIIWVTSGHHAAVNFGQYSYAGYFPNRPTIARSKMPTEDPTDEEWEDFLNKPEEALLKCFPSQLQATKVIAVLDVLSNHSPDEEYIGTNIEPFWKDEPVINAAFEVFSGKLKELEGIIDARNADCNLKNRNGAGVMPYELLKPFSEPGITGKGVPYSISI
Experiment: hydroperoxide formation at […] nm; products by HPLC
Format: biochemical
Conditions: pH 6.0, room temperature, oxygenated phosphate buffer, partially purified enzyme

For CCCCC/C=C\C/C=C\CCCCCCCC(=O)O [C18:2, linoleic acid], the “hydroperoxide formation at 234 nm; products by HPLC” value (product 13-HPOD, weaker substrate) was “Partially-purified TOMLOXF showed a higher activity on linolenic acid than on linoleic acid”.

With CC/C=C\C/C=C\C/C=C\CCCCCCCC(=O)O [C18:3, linolenic acid] the “hydroperoxide formation at 234 nm; products by HPLC” value (product 13-HPOT, preferred substrate) was “Partially-purified TOMLOXF showed a higher activity on linolenic acid than on linoleic acid”.
